Source: patent US20070049593A1 (priority 2004, published 2007)
Counter-ions that a name gives are not always drawn.

Target: T1, HCV polymerase (Hepatitis C virus genotype 1b, UniProt P26663)
T1 construct: a region encoding NS5B (J Virol 1991 March, 65(3), 1105-13, 544 amino acids after deletion of 47 amino acids on the C-terminal); 6xHis (C); made in house; host or cells: Escherichia coli
Assay: biochemical
Set-up: species or system HCV BK strain
How it was run: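 His-tagged NS5B (BK strain, 47-aa C-terminal deletion, E. coli-expressed) at 0.5 μg/ml copied 5 μg/ml run-off RNA bearing the HCV 3′ UTR with 2 μM UTP plus [3H]UTP, 50 μM ATP/GTP, in pH 7.5 Tris with 5 mM MgCl2, 25 °C, 90 min. TCA-precipitated RNA was counted and IC50 calculated.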

T1 sequence (P26663 2420-2963): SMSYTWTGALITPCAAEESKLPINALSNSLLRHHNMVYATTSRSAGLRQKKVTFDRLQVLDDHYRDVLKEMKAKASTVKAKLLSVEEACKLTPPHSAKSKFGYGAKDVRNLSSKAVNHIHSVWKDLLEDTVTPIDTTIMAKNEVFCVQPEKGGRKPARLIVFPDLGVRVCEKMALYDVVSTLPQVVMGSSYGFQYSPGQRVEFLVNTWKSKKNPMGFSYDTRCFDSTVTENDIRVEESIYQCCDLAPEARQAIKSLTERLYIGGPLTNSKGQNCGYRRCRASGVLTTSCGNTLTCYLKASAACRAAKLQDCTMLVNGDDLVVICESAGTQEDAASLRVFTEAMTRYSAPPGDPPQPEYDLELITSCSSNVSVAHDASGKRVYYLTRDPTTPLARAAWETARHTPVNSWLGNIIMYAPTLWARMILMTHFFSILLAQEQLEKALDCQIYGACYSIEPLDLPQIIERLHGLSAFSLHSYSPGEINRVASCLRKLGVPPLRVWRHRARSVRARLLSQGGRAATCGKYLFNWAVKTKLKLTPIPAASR

| SMILES | IC50 [nM] |
| --- | --- |
| CN1CCCC(CCN2CCn3c(c(C4CCCCC4)c4ccc(C(=O)O)cc43)-c3ccccc32)C1 (stereo not drawn) [Example 1-201, 13-cyclohexyl-5-[2-(1-methylpiperidin-3-yl)ethyl]-6,7-dihydro-5H-benzo[5,6][1,4]diazepino[7,1-a]indole-10-carboxylic acid dihydrochloride] | < 100 |
| CC(C)N1CCCC(CCN2CCn3c(c(C4CCCCC4)c4ccc(C(=O)O)cc43)-c3ccccc32)C1 (stereo not drawn) [Example 1-202, 13-cyclohexyl-5-[2-(1-isopropylpiperidin-3-yl)ethyl]-6,7-dihydro-5H-benzo[5,6][1,4]diazepino[7,1-a]indole-10-carboxylic acid dihydrochloride] | < 100 |
| O=C(O)c1ccc2c(C3CCCCC3)c3n(c2c1)CC(=O)N(CC(=O)N1CCCCC1)c1ccccc1-3 [Example 1-203, 13-cyclohexyl-6-oxo-5-[2-oxo-2-(piperidin-1-yl)ethyl]-6,7-dihydro-5H-benzo[5,6][1,4]diazepino[7,1-a]indole-10-carboxylic acid] | < 100 |
| CCN1CCN(C(=O)CN2C(=O)Cn3c(c(C4CCCCC4)c4ccc(C(=O)O)cc43)-c3ccccc32)CC1 [Example 1-204, 13-cyclohexyl-5-[2-(4-ethylpiperazin-1-yl)-2-oxoethyl]-6-oxo-6,7-dihydro-5H-benzo[5,6][1,4]diazepino[7,1-a]indole-10-carboxylic acid monohydrochloride] | < 100 |
| O=C(O)c1ccc2c(C3CCCCC3)c3n(c2c1)CCN(CCN1CC=CCC1)c1ccccc1-3 [Example 1-205, 13-cyclohexyl-5-[2-(3,6-dihydro-2H-pyridin-1-yl)ethyl]-6,7-dihydro-5H-benzo[5,6][1,4]diazepino[7,1-a]indole-10-carboxylic acid] | < 100 |
| Cc1cccc2c1N(CCN1CCCCC1)CCn1c-2c(C2CCCCC2)c2ccc(C(=O)O)cc21 [Example 1-206, 13-cyclohexyl-4-methyl-5-[2-(piperidin-1-yl)ethyl]-6,7-dihydro-5H-benzo[5,6][1,4]diazepino[7,1-a]indole-10-carboxylic acid dihydrochloride] | < 100 |
| COC[C@@H]1CCCN1CCN1CCn2c(c(C3CCCCC3)c3ccc(C(=O)O)cc32)-c2ccccc21 [Example 1-207, 13-cyclohexyl-5-[2-((S)-2-methoxymethylpyrrolidin-1-yl)ethyl]-6,7-dihydro-5H-benzo[5,6][1,4]diazepino[7,1-a]indole-10-carboxylic acid dihydrochloride] | < 100 |
| CC1CCCN1CCN1CCn2c(c(C3CCCCC3)c3ccc(C(=O)O)cc32)-c2ccccc21 (stereo not drawn) [Example 1-208, 13-cyclohexyl-5-[2-(2-methylpyrrolidin-1-yl)ethyl]-6,7-dihydro-5H-benzo[5,6][1,4]diazepino[7,1-a]indole-10-carboxylic acid dihydrochloride] | < 100 |
| CC(C)CN(C)CCN1CCn2c(c(C3CCCCC3)c3ccc(C(=O)O)cc32)-c2ccccc21 [Example 1-209, 13-cyclohexyl-5-[2-(N-isobutyl-N-methylamino)ethyl]-6,7-dihydro-5H-benzo[5,6][1,4]diazepino[7,1-a]indole-10-carboxylic acid dihydrochloride] | < 100 |
| O=C(O)c1ccc2c(C3CCCCC3)c3n(c2c1)CC(=O)N(CC(=O)N1CCOCC1)c1ccccc1-3 [Example 1-210, 13-cyclohexyl-5-[2-(morpholin-4-yl)-2-oxoethyl]-6-oxo-6,7-dihydro-5H-benzo[5,6][1,4]diazepino[7,1-a]indole-10-carboxylic acid] | < 100 |
| O=C(O)c1ccc2c(C3CCCCC3)c3n(c2c1)CCN(CCN1CCCCC1)c1cc(OCc2ccccc2)ccc1-3 [Example 1-211, 3-benzyloxy-13-cyclohexyl-5-[2-(piperidin-1-yl)ethyl]-6,7-dihydro-5H-benzo[5,6][1,4]diazepino[7,1-a]indole-10-carboxylic acid dihydrochloride] | < 100 |
| CC(C)N(C)CCN1CCn2c(c(C3CCCCC3)c3ccc(C(=O)O)cc32)-c2ccccc21 [Example 1-212, 13-cyclohexyl-5-[2-(N-isopropyl-N-methylamino)ethyl]-6,7-dihydro-5H-benzo[5,6][1,4]diazepino[7,1-a]indole-10-carboxylic acid dihydrochloride] | < 100 |
| CC1CCCCN1CCN1CCn2c(c(C3CCCCC3)c3ccc(C(=O)O)cc32)-c2ccc(Cl)cc21 (stereo not drawn) [Example 1-213, 3-chloro-13-cyclohexyl-5-[2-(2-methylpiperidin-1-yl)ethyl]-6,7-dihydro-5H-benzo[5,6][1,4]diazepino[7,1-a]indole-10-carboxylic acid dihydrochloride] | < 100 |
| CC1CCCN(CCN2CCn3c(c(C4CCCCC4)c4ccc(C(=O)O)cc43)-c3ccc(Cl)cc32)C1 (stereo not drawn) [Example 1-214, 3-chloro-13-cyclohexyl-5-[2-(3-methylpiperidin-1-yl)ethyl]-6,7-dihydro-5H-benzo[5,6][1,4]diazepino[7,1-a]indole-10-carboxylic acid dihydrochloride] | < 100 |
| CC1CCN(CCN2CCn3c(c(C4CCCCC4)c4ccc(C(=O)O)cc43)-c3ccc(Cl)cc32)CC1 [Example 1-215, 3-chloro-13-cyclohexyl-5-[2-(4-methylpiperidin-1-yl)ethyl]-6,7-dihydro-5H-benzo[5,6][1,4]diazepino[7,1-a]indole-10-carboxylic acid dihydrochloride] | < 100 |
| O=C(O)c1ccc2c(C3CCCCC3)c3n(c2c1)CCN(CCN1CCCC1)c1cc(Cl)ccc1-3 [Example 1-216, 3-chloro-13-cyclohexyl-5-[2-(pyrrolidin-1-yl)ethyl]-6,7-dihydro-5H-benzo[5,6][1,4]diazepino[7,1-a]indole-10-carboxylic acid dihydrochloride] | < 100 |
| O=C(O)c1ccc2c(C3CCCCC3)c3n(c2c1)CCN(CCN1CCCCCC1)c1cc(Cl)ccc1-3 [Example 1-217, 5-[2-(azepan-1-yl)ethyl]-3-chloro-13-cyclohexyl-6,7-dihydro-5H-benzo[5,6][1,4]diazepino[7,1-a]indole-10-carboxylic acid dihydrochloride] | < 100 |
| Cc1ccc2c(c1)N(CCN1CCCCCC1)CCn1c-2c(C2CCCCC2)c2ccc(C(=O)O)cc21 [Example 1-218, 5-[2-(azepan-1-yl)ethyl]-13-cyclohexyl-3-methyl-6,7-dihydro-5H-benzo[5,6][1,4]diazepino[7,1-a]indole-10-carboxylic acid dihydrochloride] | < 100 |
| O=C(O)c1ccc2c(C3CCCCC3)c3n(c2c1)CCN(CCC1CCCNC1)c1cc(Cl)ccc1-3 (stereo not drawn) [Example 1-219, 3-chloro-13-cyclohexyl-5-[2-(piperidin-3-yl)ethyl]-6,7-dihydro-5H-benzo[5,6][1,4]diazepino[7,1-a]indole-10-carboxylic acid dihydrochloride] | < 100 |
| CC1COCCN1CCN1CCn2c(c(C3CCCCC3)c3ccc(C(=O)O)cc32)-c2ccccc21 (stereo not drawn) [Example 1-220, 13-cyclohexyl-5-[2-(3-methylmorpholin-4-yl)ethyl]-6,7-dihydro-5H-benzo[5,6][1,4]diazepino[7,1-a]indole-10-carboxylic acid dihydrochloride] | < 100 |
| CN1CCCC(CCN2CCn3c(c(C4CCCCC4)c4ccc(C(=O)O)cc43)-c3ccc(Cl)cc32)C1 (stereo not drawn) [Example 1-221, 3-chloro-13-cyclohexyl-5-[2-(1-methylpiperidin-3-yl)ethyl]-6,7-dihydro-5H-benzo[5,6][1,4]diazepino[7,1-a]indole-10-carboxylic acid dihydrochloride] | < 100 |
| CN(C)CCN(C)C(=O)CN1CCn2c(c(C3CCCCC3)c3ccc(C(=O)O)cc32)-c2ccccc21 [Example 1-222, 13-cyclohexyl-5-{[N-(2-dimethylaminoethyl)-N-methylcarbamoyl]methyl}-6,7-dihydro-5H-benzo[5,6][1,4]diazepino[7,1-a]indole-10-carboxylic acid dihydrochloride] | < 100 |
| CN(C)CCN(C)CCN1CCn2c(c(C3CCCCC3)c3ccc(C(=O)O)cc32)-c2ccccc21 [Example 1-223, 13-cyclohexyl-5-{2-[N-(2-dimethylaminoethyl)-N-methylamino]ethyl}-6,7-dihydro-5H-benzo[5,6][1,4]diazepino[7,1-a]indole-10-carboxylic acid trihydrochloride] | < 100 |
| CCS(=O)(=O)N1CCN(CCN2CCn3c(c(C4CCCCC4)c4ccc(C(=O)O)cc43)-c3ccccc32)CC1 [Example 1-224, 13-cyclohexyl-5-[2-(4-ethanesulfonylpiperazin-1-yl)ethyl]-6,7-dihydro-5H-benzo[5,6][1,4]diazepino[7,1-a]indole-10-carboxylic acid dihydrochloride] | < 100 |
| CCC(=O)N1CCN(CCN2CCn3c(c(C4CCCCC4)c4ccc(C(=O)O)cc43)-c3ccccc32)CC1 [Example 1-225, 13-cyclohexyl-5-[2-(4-propionylpiperazin-1-yl)ethyl]-6,7-dihydro-5H-benzo[5,6][1,4]diazepino[7,1-a]indole-10-carboxylic acid dihydrochloride] | < 100 |
| CC(C)OC(=O)N1CCN(CCN2CCn3c(c(C4CCCCC4)c4ccc(C(=O)O)cc43)-c3ccccc32)CC1 [Example 1-226, 13-cyclohexyl-5-[2-(4-isopropoxycarbonylpiperazin-1-yl)ethyl]-6,7-dihydro-5H-benzo[5,6][1,4]diazepino[7,1-a]indole-10-carboxylic acid dihydrochloride] | < 100 |
| CC(C)Oc1ccc2c(c1)N(CCN1CCCCC1)CCn1c-2c(C2CCCCC2)c2ccc(C(=O)O)cc21 [Example 1-227, 13-cyclohexyl-3-isopropoxy-5-[2-(piperidin-1-yl)ethyl]-6,7-dihydro-5H-benzo[5,6][1,4]diazepino[7,1-a]indole-10-carboxylic acid dihydrochloride] | < 100 |
